In ChEMBL document CHEMBL1138694, “Discovery of small molecule antagonists of TRPV1” (2004):

Assays:
[1] = target: Transient receptor potential cation channel subfamily V member 1 (Homo sapiens) (UniProt Q8NER1); experiment: Antagonistic activity against human transient receptor potential vanilloid type 1 in FLIPR assay; format: functional
[2] = Antagonistic activity against rat transient receptor potential vanilloid type 1 expressed in HEK293 cells compared to capsaicin; format: functional
[3] = Inhibition of capsaicin- response in rat dorsal root ganglion; format: functional
[4] = target: Transient receptor potential cation channel subfamily V member 1 (Cavia porcellus) (UniProt Q6R5A3); experiment: Antagonistic activity against guinea pig Transient receptor potential vanilloid type 1 expressed in HEK293 cells compared to capsaicin
Chain of Transient receptor potential cation channel subfamily V member 1 (Cavia porcellus) (Q6R5A3 whole entry, looked up): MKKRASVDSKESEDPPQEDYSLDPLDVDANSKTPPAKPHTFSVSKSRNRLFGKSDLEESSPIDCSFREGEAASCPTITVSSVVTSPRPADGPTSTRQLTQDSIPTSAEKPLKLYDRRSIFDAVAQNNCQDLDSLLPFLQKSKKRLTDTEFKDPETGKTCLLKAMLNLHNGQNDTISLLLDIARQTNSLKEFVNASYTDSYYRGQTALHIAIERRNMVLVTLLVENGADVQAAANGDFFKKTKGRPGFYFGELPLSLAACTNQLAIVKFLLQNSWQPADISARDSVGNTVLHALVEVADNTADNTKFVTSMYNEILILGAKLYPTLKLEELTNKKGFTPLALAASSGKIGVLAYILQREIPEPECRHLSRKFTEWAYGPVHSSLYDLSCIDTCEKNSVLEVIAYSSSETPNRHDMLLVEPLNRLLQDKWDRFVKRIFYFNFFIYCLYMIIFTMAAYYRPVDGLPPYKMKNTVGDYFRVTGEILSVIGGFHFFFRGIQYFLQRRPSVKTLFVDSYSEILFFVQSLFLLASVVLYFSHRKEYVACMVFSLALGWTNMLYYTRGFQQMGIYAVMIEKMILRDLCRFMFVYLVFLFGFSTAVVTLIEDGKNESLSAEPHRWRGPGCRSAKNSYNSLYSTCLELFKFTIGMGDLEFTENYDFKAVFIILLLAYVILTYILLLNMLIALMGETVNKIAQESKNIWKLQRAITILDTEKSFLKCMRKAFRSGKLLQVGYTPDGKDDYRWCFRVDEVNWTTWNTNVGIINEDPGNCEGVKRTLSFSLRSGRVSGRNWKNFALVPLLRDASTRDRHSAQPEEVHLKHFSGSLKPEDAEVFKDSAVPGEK

Chain of Transient receptor potential cation channel subfamily V member 1 (Homo sapiens) (Q8NER1 whole entry): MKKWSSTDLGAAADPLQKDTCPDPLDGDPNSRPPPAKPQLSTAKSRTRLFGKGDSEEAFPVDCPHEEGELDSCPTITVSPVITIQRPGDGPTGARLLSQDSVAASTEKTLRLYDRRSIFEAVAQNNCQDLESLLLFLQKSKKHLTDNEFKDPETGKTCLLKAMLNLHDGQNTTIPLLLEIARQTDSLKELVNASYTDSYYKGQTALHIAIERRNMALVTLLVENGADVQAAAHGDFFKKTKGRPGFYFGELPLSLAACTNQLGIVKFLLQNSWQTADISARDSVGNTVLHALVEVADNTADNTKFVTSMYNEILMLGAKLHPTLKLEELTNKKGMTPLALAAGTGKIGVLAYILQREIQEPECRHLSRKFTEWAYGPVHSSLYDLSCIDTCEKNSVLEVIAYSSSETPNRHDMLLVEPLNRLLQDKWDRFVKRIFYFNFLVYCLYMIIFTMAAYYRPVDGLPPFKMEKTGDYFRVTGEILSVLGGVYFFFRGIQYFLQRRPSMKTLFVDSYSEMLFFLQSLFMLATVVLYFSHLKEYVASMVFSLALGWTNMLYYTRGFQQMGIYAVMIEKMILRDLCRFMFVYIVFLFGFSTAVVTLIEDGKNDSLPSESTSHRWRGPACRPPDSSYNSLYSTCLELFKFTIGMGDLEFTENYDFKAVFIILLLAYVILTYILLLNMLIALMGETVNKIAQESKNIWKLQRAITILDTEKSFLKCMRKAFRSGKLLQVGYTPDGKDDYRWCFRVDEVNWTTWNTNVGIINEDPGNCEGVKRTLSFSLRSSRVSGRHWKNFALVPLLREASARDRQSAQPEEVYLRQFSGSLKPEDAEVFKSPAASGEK

CCN(CCNC(=O)Nc1ccccc1Br)c1cccc(C)c1
pKb [1]: 7.8
pKb [2]: 7.7
pKb [3]: 7.4
pKb [4]: 7.5

COc1cccc(NC(=O)/C=C/c2ccc(Cl)cc2)c1
pKb [1]: 7.7

Oc1cc2c(cc1O)CN(C(=S)NCCc1ccc(Cl)cc1)CCC2
pKb [1]: 7.5
